The values below come from ChEMBL document CHEMBL5620362 (Eur J Med Chem, 2023).

What is called ΔTm is the shift of the melting midpoint relative to a reference. Usually Tm stands for the temperature at which the thermal transition is half complete. Broadly, the IC50 is the concentration that gives 50% inhibition. Usually Kd stands for the free concentration of one partner at which half of the binding sites on the other are occupied at equilibrium, for simple one-to-one binding.

Active and inactive are the calls of the source. No cut-off for these calls is given here.

Test [1] concerns the target T1, Nuclear receptor ROR-gamma (Homo sapiens) (UniProt P51449).
T1 sequence (whole entry): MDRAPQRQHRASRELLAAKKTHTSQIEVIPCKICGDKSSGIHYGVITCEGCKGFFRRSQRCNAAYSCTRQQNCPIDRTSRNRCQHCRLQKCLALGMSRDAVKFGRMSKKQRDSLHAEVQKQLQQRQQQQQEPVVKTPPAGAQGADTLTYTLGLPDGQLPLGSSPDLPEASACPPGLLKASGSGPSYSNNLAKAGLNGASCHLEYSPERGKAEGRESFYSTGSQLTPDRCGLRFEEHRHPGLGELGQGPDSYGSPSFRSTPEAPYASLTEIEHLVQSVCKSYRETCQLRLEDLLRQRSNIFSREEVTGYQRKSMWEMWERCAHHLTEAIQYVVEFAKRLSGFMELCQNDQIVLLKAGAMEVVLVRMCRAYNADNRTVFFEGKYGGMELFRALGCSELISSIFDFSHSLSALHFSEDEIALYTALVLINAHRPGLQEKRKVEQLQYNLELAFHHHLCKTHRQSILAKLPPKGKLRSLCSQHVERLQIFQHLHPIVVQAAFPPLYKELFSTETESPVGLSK
The experiment in a line: Binding affinity to ROR-gamma LBD (265 to 507 residues)(unknown origin) assessed as increase in thermal stability by measuring change in melting temperature at 100 uM incubated for 2 hrs followed by heating at 20 to 90 degreeC by NanoDSF assay (reference value: 46.0 degreeC). Particulars: filed as antagonist.

In test [2] the target is T1, Nuclear receptor ROR-gamma (Homo sapiens). The experiment in a line: Binding affinity to ROR-gamma LBD (265 to 507 residues)(unknown origin) assessed as increase in thermal stability by measuring melting temperature at 100 uM incubated for 2 hrs followed by heating at 20 to 90 degreeC by NanoDSF assay (reference value: 46.0 degreeC). To be noted: filed as antagonist. In general terms: DSF heats the sample and reads unfolding from a dye or from intrinsic fluorescence.

For test [3] the target is unchanged. As to the kind of experiment: Binding affinity to ROR-gamma LBD (unknown origin) assessed as protein stabilization by measuring reduction in hydrolysis rate incubated for 10 mins by SDS-PAGE analysis. Particulars: filed as antagonist, dose <= 100.0 µM.
The target in test [4] is T2, Nuclear receptor ROR-gamma (Homo sapiens, UniProt P51449).
T2 sequence (P51449 whole entry): T1 sequence (whole entry)
As to the kind of experiment: Antagonist activity at ROR-gamma LBD (unknown origin) using biotinylated SRC1-2 as substrate preincubated for 60 mins followed by substrate addition measured after 30 mins by HTRF assay. On the technique in general: In TR-FRET formats the signal depends on donor and acceptor labels being close together.

For test [5], the target named is T2, Nuclear receptor ROR-gamma. The experiment in a line: Binding affinity to ROR-gamma LBD (unknown origin) assessed as dissociation constant by ITC analysis. Background: Isothermal titration calorimetry measures the heat released or taken up as one component is titrated into another.
Test [6] deals with T2, Nuclear receptor ROR-gamma. The experiment in a line: Binding affinity to CM5 chip-immobilized recombinant ROR-gamma LBD (unknown origin) assessed as dissociation constant by SPR analysis.
For test [7], the system named is HPAF-II. The experiment in a line: Antitumor activity against human HPAF-II cells measured after 72 hrs. Type of test: functional, cell-based.
In test [8] the test system is HPAF-II. The experiment in a line: Downregulation of retinol metabolism-related gene expression in human HPAF-II cells at 20 uM incubated for 24 hrs by KEGG analysis. Type of test: functional, cell-based.
Test [9] concerns HPAF-II. As to the kind of experiment: Downregulation of drug metabolism-related gene expression in human HPAF-II cells at 20 uM incubated for 24 hrs by KEGG analysis. Type of test: functional, cell-based.
Test [10] has as its system HPAF-II. The experiment in a line: Downregulation of chemical carcinogenesis-related gene expression in human HPAF-II cells at 20 uM incubated for 24 hrs by KEGG analysis. The format is functional, cell-based.
In test [11] the test system is HPAF-II. The experiment in a line: Downregulation of cancer-related gene expression in human HPAF-II cells at 20 uM incubated for 24 hrs by KEGG analysis. The format is functional, cell-based.
The test system of test [12] is HPAF-II. As to the kind of experiment: Downregulation of retinol metabolism-related gene expression in human HPAF-II cells at 20 uM incubated for 24 hrs by GO analysis. The format is functional, cell-based.
Test [13] relates to HPAF-II. As to the kind of experiment: Downregulation of lipid metabolism-related gene expression in human HPAF-II cells at 20 uM incubated for 24 hrs by GO analysis. The format is functional, cell-based.
Test [14] relates to HPAF-II. The experiment in a line: Downregulation of cancer-related gene expression in human HPAF-II cells at 20 uM incubated for 24 hrs by GO analysis. Type of test: functional, cell-based.
Test [15] has as its system HPAF-II. The experiment in a line: Inhibition of MAPK signalling pathway in human HPAF-II cells at 20 uM incubated for 24 hrs by KEGG analysis. The format is functional, cell-based.
The test system of test [16] is HPAF-II. The experiment in a line: Inhibition of RAS signalling pathway in human HPAF-II cells at 20 uM incubated for 24 hrs by KEGG analysis. Type of test: functional, cell-based.
In test [17] the test system is HPAF-II. The experiment in a line: Effect on mTORC1 signalling pathway in human HPAF-II cells at 20 uM incubated for 24 hrs by KEGG analysis. The format is functional, cell-based.
The subject of test [18] is HPAF-II. The experiment in a line: Downregulation of phosphorylated MEK expression in human HPAF-II cells at 20 uM incubated for 48 hrs by Western blot analysis. Type of test: functional, cell-based.
Test [19] relates to HPAF-II. The experiment in a line: Downregulation of phosphorylated ERK expression in human HPAF-II cells at 20 uM incubated for 48 hrs by Western blot analysis. The format is functional, cell-based.
Test [20] relates to HPAF-II. The experiment in a line: Downregulation of phosphorylated AKT expression in human HPAF-II cells at 20 uM incubated for 48 hrs by Western blot analysis. The format is functional, cell-based.

Turning to `C=C(C)[C@@H]1CC[C@]2(C(=O)O)CC[C@]3(C)[C@H](CC[C@@H]4[C@@]5(C)CC[C@H](O)C(C)(C)[C@@H]5CC[C@]43C)[C@@H]12` [BETULINIC ACID], the ΔTm in [1] is 14.1 °C. In test [2], the Tm was found to be 60.2 °C. For the same compound, the Activity result in test [3] is “Dose-Dependent Effect”. Besides, the IC50 in [4] came out at 2.2 µM; with HPAF-II [7], 12.5 µM. Further, the Kd in test [5] was 3.39 µM; in test [6] it was 2.7 µM. Also, the result in the test on HPAF-II [8], in the test with HPAF-II [9], with HPAF-II [10], in the test on HPAF-II [11], in the test on HPAF-II [12] and with HPAF-II [13] was Active. Also, the result in the test with HPAF-II [14], in the test on HPAF-II [17], in the test on HPAF-II [18], with HPAF-II [19] and in the test on HPAF-II [20] was Active. Further, the inhibition result in the test on HPAF-II [15] and with HPAF-II [16] was “Active” each time.
